Counter-ions that a name gives are not always drawn. Like-named read-outs stand apart in the source and are kept apart here.
Legend:
[1] = target: His-GST-TVMV-hRIPK1(1-324) (Homo sapiens (Human), UniProt Q13546); test: RIPK1 HTRF Binding Assay
Protocol: A solution was prepared containing 0.2 nM Anti GST-Tb (Cisbio, 61GSTTLB), 90.6 nM probe and 1 nM His-GST-TVMV-hRIPK1(1-324) in FRET Buffer (20 mM HEPES, 10 mM MgCl2, 0.015% Brij-35, 4 mM DTT, 0.05 mg/mL BSA). Using Formulatrix Tempest, the detection antibody/enzyme/probe solution ([…]) was dispensed into wells of a 1536 plate (Black Low Binding Polystyrene 1536 Plate (Corning, 3724)) containing 10 nL of compounds of interest at appropriate concentration in DMSO. The plate was incubated at rt for 1 h. FRET was measured using the EnVision plate reader (Excitation: 340 nm, Emission: 520 nm/[…]). Total signal (0% inhibition) was calculated from wells containing 10 nL DMSO only.
The coding region of human RIPK1(1-324) flanked by NdeI site at 5′ end and stop codon TGA and XhoI site at 3′ end was codon optimized and gene synthesized at GenScript USA Inc. (Piscataway, N.J.) and subcloned into a modified pFastBacl vector (Invitrogen, Carlsbad, Calif.) with N-terminal His-GST-TVMV tag, to generate His-GST-TVMV-hRIPK1(1-324)-pFB. The fidelity of the synthetic fragment was confirmed by sequencing.

[2] = tested on: MLKL phosphorylation in HT29-L23 human colorectal adenocarcinoma cells; test: MLKL Phosphorylation High-Content Assay; assay type: cell-based; settings: necroptosis induced with TNFα, SMAC mimetic and Z-VAD, 6 h, read-out: pMLKL (IC50)
Protocol: MLKL Phosphorylation High-Content Assay
HT29-L23 human colorectal adenocarcinoma cells were maintained in RPMI 1640 medium containing 10% heat-inactivated FBS, 1% Pennicilin-Streptomycin and 10 mM HEPES. Cells were seeded at 2,000 cells/well in 384 w tissue culture-treated microplates (Greiner #781090-3B) and incubated at 37° C. (5% CO2/95% O2) for two days. On the day of assay, the cells were treated with test compounds at final concentrations of 6.25 to 0.106 μM for 30 min at 37° C. (5% CO2/95% O2). Necroptopsis was induced using a mixture of human TNFα (35 ng/mL) (Peprotech #300-01A), SMAC mimetic (from US 2015/0322111 A1) (700 nM) and Z-VAD (140 nM) (BD pharmingen #51-6936). Following six hours incubation at 37° C. (5% CO2/95% O2), the cells were fixed with 4% formaldedye (ACROS 11969-0010) for 15 min at room temperature and then permeabilized with phoshpate buffered saline (PBS) containing 0.2% Triton-X-100 for 10 min. MLKL phosporylation was detected using anti-MLKL (phospho S358) antibody (Abcam # ab187091) (1:1000 dilution in Blocking Buffer [PBS supplemented with 0.1% BSA]) with overnight incubation at 4° C. After washing three times in PBS, goat anti-rabbit Alexa-488 (1:1000 dilution) (Life Technologies, A11008) and Hoechst 33342 (Life Technologies, H3570) (1:2000 dilution) in Blocking Buffer were added for 1 h at room temperature. Following another three cycles of washes in PBS, the microplates were sealed, and cellular images were acquired in the Cellomics ArrayScan VTI high-content imager equipped with an X1 camera. Fluorescent images were taken using a 10× objective and the 386-23 BGRFRN_BGRFRN and 485-20 BGRFRN_BGRFRN filter sets, for nuclei and MLKL phosphorylation, respectively. The image sets were analyzed using the Compartmental Analysis Bioapplication software (Cellomics). The level of MLKL phosphorylation was quantified as MEAN_CircRingAvgIntenRatio. […] The IC50 value was defined as the concentration of compound that produces 50% of the maximal inhibition. The data were fitted using the 4-parameter logistic equation to calculate the IC50 and Ymax values.

[3] = HTRF binding, 1 h at rt, read-out: RIPK1 (IC50)

Sequence of His-GST-TVMV-hRIPK1(1-324) (Q13546 1-324): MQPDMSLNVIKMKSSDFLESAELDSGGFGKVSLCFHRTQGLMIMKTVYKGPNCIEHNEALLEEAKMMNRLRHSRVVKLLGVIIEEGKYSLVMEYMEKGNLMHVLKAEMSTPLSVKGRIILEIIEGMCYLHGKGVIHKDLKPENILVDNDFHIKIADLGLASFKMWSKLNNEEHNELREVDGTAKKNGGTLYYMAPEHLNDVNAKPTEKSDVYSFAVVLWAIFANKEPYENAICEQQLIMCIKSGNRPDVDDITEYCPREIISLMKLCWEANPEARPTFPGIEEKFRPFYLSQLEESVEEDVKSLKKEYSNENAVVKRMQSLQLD

| Molecule | IC50 [2] [nM] | IC50 ([2]; Homo sapiens) [nM] | other results |
| --- | --- | --- | --- |
| 3-{2- acetamidoimidazo [1,2-b]pyridazin- 6-yl}-2-fluoro- N-{[2-fluoro-5- (trifluoromethoxy) phenyl] (Â^2Hâ,,)methyl} benzamide [Example 430] | 9 | – | IC50 [1, 3]: 3 nM |
| 5-{2- acetamidoimidazo [1,2-b]pyridazin- 6-yl}-N-[(1R)- 1-[2-fluoro-5- (trifluoromethyl) phenyl](2,2,2-Â^2Hâ,f) ethyl]-2 methylbenzamide [Example 425] | 327 | – | IC50 [1, 3]: > 5000 nM |
| 5-{2- acetamidoimidazo [1,2-b]pyridazin- 6-yl}-N-{[2- fluoro-5- (trifluoromethoxy) phenyl] (Â^2Hâ,,)methyl}-2- methylbenzamide [Example 426] | 7 | – | IC50 [1, 3]: 1 nM |
| 5-{2- acetamidoimidazo[1,2-b]pyridazin- 6-yl}-N-{[2-fluoro-5- (trifluoromethyl)phenyl]methyl}-2- methoxypyridine-3-carboxamide [Example 146] | 48 | – | IC50 [1, 3]: 17 nM |
| 5-{2-acetamidoimidazo[1,2-b]pyridazin- 6-yl}-2-methoxy-6-methyl-N-{[2- (trifluoromethoxy)phenyl](deutero)- methyl}pyridine-3-carboxamide [Example 295] | 23 | – | IC50 [1, 3]: 10 nM |
| 5-{2-acetamidoimidazo[1,2-b]pyridazin- 6-yl}-N-{[2-fluoro-5- (trifluoromethoxy)phenyl]- (deutero)methyl}-2-methoxy-6- methylpyridine-3-carboxamide [Example 282] | 8 | – | IC50 [1, 3]: 10 nM |
| 5-{2-acetamidoimidazo[1,2-b]pyridazin- 6-yl}-N-{[3-fluoro-5- (trifluoromethoxy)phenyl]methyl}-2,6- dimethylpyridine-3-carboxamide, TFA [Example 79] | 46 | – | IC50 [1, 3]: 38 nM |
| CC(=O)Nc1cn2nc(-c3cncc(NS(=O)(=O)c4ccc(F)cc4)c3)ccc2n1 [Example 11 in US2009/0163489, reference compound] | – | – | IC50 ([1]; comparison compound of US2009/0163489, read-out: IC50 in the RIPK1 assay): 11000 nM |
| CC(=O)Nc1cn2nc(-c3cc(C(=O)NCc4cccnc4OCC4CCC4)c(C)nc3C)ccc2n1 [Example 86, N-{[2-(cyclobutylmethoxy)pyridin-3-yl]methyl}-5-{2-acetamidoimidazo[1,2-b]pyridazin-6-yl}-2,6-dimethylpyridine-3-carboxamide] | 27 | – | – |
| COc1ncc(-c2ccc3nc(NC(C)=O)cn3n2)cc1C(=O)NCc1ncccc1OCC(F)(F)F [Example 101, 5-{2-acetamidoimidazo[1,2-b]pyridazin-6-yl}-2-methoxy-N-{[3-(2,2,2-trifluoroethoxy)pyridin-2-yl]methyl}pyridine-3-carboxamide, 2 TFA] | 248 | – | – |
| COc1ncc(-c2ccc3nc(NC(C)=O)cn3n2)cc1C(=O)NCc1cc(F)ccc1C(=O)N1CCC(F)(F)C1 [Example 323, N-{[2-(3,3-difluoropyrrolidine-1-carbonyl)-5-fluorophenyl]methyl}-5-{2-acetamidoimidazo[1,2-b]pyridazin-6-yl}-2-methoxypyridine-3-carboxamide] | – | 9 | – |
| COc1ncc(-c2ccc3nc(NC(C)=O)cn3n2)cc1C(=O)NCc1cc(F)cc(F)c1C(=O)N1CCC(F)(F)C1 [Example 324, N-{[2-(3,3-difluoropyrrolidine-1-carbonyl)-3,5-difluorophenyl]methyl}-5-{2-acetamidoimidazo[1,2-b]pyridazin-6-yl}-2-methoxypyridine-3-carboxamide] | – | 3 | – |
| Cc1ncc(-c2ccc3nc(NC(=O)CN4CCOCC4)cn3n2)cc1C(=O)N[C@H](C)c1cc(OC(F)(F)F)ccc1F [Example 337, N-[(1R)-1-[2-fluoro-5-(trifluoromethoxy)-phenyl]ethyl]-2-methyl-5-{2-[2-(morpholin-4-yl)acetamido]imidazo[1,2-b]pyridazin-6-yl}pyridine-3-carboxamide] | – | 11 | – |
| Cc1ncc(-c2ccc3nc(NC(=O)CN4CCOCC4)cn3n2)cc1C(=O)NCC[C@@H](O)c1ccc(Cl)cc1 [Example 345, N-[(3R)-3-(4-chlorophenyl)-3-hydroxypropyl]-2-methyl-5-{2-[2-(morpholin-4-yl)acetamido]imidazo[1,2-b]pyridazin-6-yl}pyridine-3-carboxamide] | – | 44 | – |
| Cc1ncc(-c2ccc3nc(NC(=O)CN4CCOCC4)cn3n2)cc1C(=O)NCC[C@H](O)c1ccc(Cl)cc1 [Example 346, N-[(3S)-3-(4-chlorophenyl)-3-hydroxypropyl]-2-methyl-5-{2-[2-(morpholin-4-yl)acetamido]imidazo[1,2-b]pyridazin-6-yl}pyridine-3-carboxamide] | – | 82 | – |
| CC(=O)Nc1cn2nc(-c3cc(F)c(C)c(C(=O)NCc4cc(-c5cnn(C)c5)ccc4F)c3)ccc2n1 [Example 358, 5-(2-acetamidoimidazo[1,2-b]pyridazin-6-yl)-3-fluoro-N-(2-fluoro-5-(1-methyl-1H-pyrazol-4-yl)benzyl)-2-methylbenzamide] | – | 49 | – |
| CC(=O)Nc1cn2nc(-c3c(F)c(F)cc(C(=O)NCc4cc(C(F)(F)F)ccc4F)c3F)ccc2n1 [Example 369, 3-{2-acetamidoimidazo [1,2-b]pyridazin-6-yl}-2,4,5-trifluoro-N-{[2-fluoro-5-(trifluoromethyl)phenyl]methyl} benzamide] | – | 61 | – |
| COc1ccc(-c2ccc3nc(NC(C)=O)cn3n2)c(F)c1C(=O)NCC[C@@H](O)c1ccc(Cl)cc1 [Example 374, N-[(3R)-3-(4-chlorophenyl)-3-hydroxypropyl]-3-{2-acetamidoimidazo [1,2-b]pyridazin-6-yl}-2-fluoro-6-methoxybenzamide] | – | 19 | – |
| CC(=O)Nc1cn2nc(-c3cc(C(=O)NCc4cc(OC(F)(F)F)ccc4F)c(Cl)cc3C)ccc2n1 [Example 393, 2-chloro-5-{2-acetamidoimidazo [1,2-b]pyridazin-6-yl}-N-{[2-fluoro-5-(trifluoromethoxy)phenyl]methyl}-4-methylbenzamide] | – | 8 | – |
| CC(=O)Nc1cn2nc(-c3ccc(C)c(C(=O)Nc4cnn(Cc5ccccc5)c4)c3)ccc2n1 [Example 399, N-(1-benzyl-1H-pyrazol-4-yl)-5-{2-acetamidoimidazo [1,2-b]pyridazin-6-yl}-2-methylbenzamide] | – | 5 | – |
| CC(=O)Nc1cn2nc(-c3cc(C(=O)NCC[C@@H](O)c4ccc(Cl)cc4)c(C)cc3F)ccc2n1 [Example 415, N-[(3R)-3-(4-chlorophenyl)-3-hydroxypropyl]-5-{2-acetamidoimidazo[1,2-b]pyridazin-6-yl}-4-fluoro-2-methylbenzamide] | – | 4 | – |
| COc1ccc(-c2ccc3nc(NC(C)=O)cn3n2)cc1C(=O)NCc1cc(OC(F)(F)F)ccc1F [Example 418, 5-{2-acetamidoimidazo [1,2-b]pyridazin-6-yl}-N-{[2-fluoro-5-(trifluoromethoxy)phenyl]methyl}-2-methoxybenzamide] | – | 26 | – |
| CC(=O)Nc1cn2nc(-c3c(F)ccc(C(=O)N[C@H](C)c4cc(C(F)(F)F)ccc4F)c3F)ccc2n1 [Example 423, 3-{2-acetamidoimidazo [1,2-b]pyridazin-6-yl}-2,4-difluoro-N-[(1R)-1-[2-fluoro-5-(trifluoromethyl)phenyl]ethyl] benzamide] | – | 109 | – |
| CC(=O)Nc1cn2nc(-c3cc(C(=O)NCc4cc(OC(F)(F)F)ccc4F)ccc3C)ccc2n1 [Example 433, 3-{2-acetamidoimidazo [1,2-b]pyridazin-6-yl}-N-{[2-fluoro-5-(trifluoromethoxy)phenyl]methyl}-4-methylbenzamide] | – | 34 | – |
